# Laboratory results taken from ChEMBL document CHEMBL4610027, “Identification of Mycobacterium tuberculosis CtpF as a target for designing new antituberculous compounds” (Bioorg Med Chem, 2020).
# Activity calls are given as the source filed them. The calls are words filed in the database; no cut-off is given here.
# System: Mycobacterium tuberculosis
# Test: Antimycobacterial activity against Mycobacterium tuberculosis H37Rv incubated for 6 days by resazurin dye-based colorimetric method
# Type: functional
# Conditions: 144 h
row,Compound,MIC [mg/L]
1,CCC[C@H](C)NC(=O)CSc1nc2cc(S(=O)(=O)Nc3ccccc3OC)ccc2o1,> 200
2,COCC(=O)Nc1c(C(=O)OC)n(CCC(C)C)c2ncc(N[C@@H](C)C(C)(C)O)cc12,50
3,O=C(CCCC[C@@H]1SC[C@@H]2NC(=O)N[C@@H]21)NCc1cn(-c2ccccc2)nc1-c1ccccc1,100
4,NS(=O)(=O)[C@H]1CC=C(CNC(=O)CCCc2c[nH]c3ccccc23)S1,50
5,CCCCC(=O)Nc1cccc(C(=O)NCCCNc2cccnc2)c1,100
6,C[C@@H](OC(=O)CCCNC1=NS(=O)(=O)c2ccccc21)C(=O)c1c[nH]c2ccccc12,100
7,CC(=O)C1=C(O)[C@@H]2[C@H]3c4c[nH]c5cccc(c45)C[C@H]3C(C)(C)N2C1=O [CYCLOPIAZONIC ACID],100

# System: Mycobacterium tuberculosis
# Test: Antimycobacterial activity against Mycobacterium tuberculosis H37Rv assessed as inhibition of bacterial growth at MIC incubated for 21 days by colony formation assay relative to control
# Type: functional
# Conditions: not given
Compound,inhibition,inhibition (INH) [%]
CCC[C@H](C)NC(=O)CSc1nc2cc(S(=O)(=O)Nc3ccccc3OC)ccc2o1,inactive,
COCC(=O)Nc1c(C(=O)OC)n(CCC(C)C)c2ncc(N[C@@H](C)C(C)(C)O)cc12,,60.7
O=C(CCCC[C@@H]1SC[C@@H]2NC(=O)N[C@@H]21)NCc1cn(-c2ccccc2)nc1-c1ccccc1,,29.5
NS(=O)(=O)[C@H]1CC=C(CNC(=O)CCCc2c[nH]c3ccccc23)S1,,64
CCCCC(=O)Nc1cccc(C(=O)NCCCNc2cccnc2)c1,,52.9
C[C@@H](OC(=O)CCCNC1=NS(=O)(=O)c2ccccc21)C(=O)c1c[nH]c2ccccc12,,37.3
CC(=O)C1=C(O)[C@@H]2[C@H]3c4c[nH]c5cccc(c45)C[C@H]3C(C)(C)N2C1=O [CYCLOPIAZONIC ACID],,29.9

# System: not listed separately
# Test: Cytotoxicity against mouse MHS cells assessed as cell death at 100 ug/ml incubated for 48 hrs by crystal violet staining based spectrophotometric analysis relative to control
# Conditions: not given
row,Compound,Activity [%]
1,CCC[C@H](C)NC(=O)CSc1nc2cc(S(=O)(=O)Nc3ccccc3OC)ccc2o1,39.5
2,COCC(=O)Nc1c(C(=O)OC)n(CCC(C)C)c2ncc(N[C@@H](C)C(C)(C)O)cc12,19.8
3,O=C(CCCC[C@@H]1SC[C@@H]2NC(=O)N[C@@H]21)NCc1cn(-c2ccccc2)nc1-c1ccccc1,30
4,NS(=O)(=O)[C@H]1CC=C(CNC(=O)CCCc2c[nH]c3ccccc23)S1,12.9
5,CCCCC(=O)Nc1cccc(C(=O)NCCCNc2cccnc2)c1,21.4
6,C[C@@H](OC(=O)CCCNC1=NS(=O)(=O)c2ccccc21)C(=O)c1c[nH]c2ccccc12,31.6
7,CC(=O)C1=C(O)[C@@H]2[C@H]3c4c[nH]c5cccc(c45)C[C@H]3C(C)(C)N2C1=O [CYCLOPIAZONIC ACID],50.8

# System: not listed separately
# Test: Hemolytic activity against human erythrocytes assessed as hemolysis at 100 ug/ml incubated for 2 hrs by spectrophotometric analysis
# Type: ADME, cell-based, Erythrocyte
# Conditions: read-out: Activity
row,Compound,"hemolysis at 2 h, 100 ug/ml [%]"
1,CCC[C@H](C)NC(=O)CSc1nc2cc(S(=O)(=O)Nc3ccccc3OC)ccc2o1,1
2,COCC(=O)Nc1c(C(=O)OC)n(CCC(C)C)c2ncc(N[C@@H](C)C(C)(C)O)cc12,0.6
3,O=C(CCCC[C@@H]1SC[C@@H]2NC(=O)N[C@@H]21)NCc1cn(-c2ccccc2)nc1-c1ccccc1,2.4
4,NS(=O)(=O)[C@H]1CC=C(CNC(=O)CCCc2c[nH]c3ccccc23)S1,2
5,CCCCC(=O)Nc1cccc(C(=O)NCCCNc2cccnc2)c1,1.2
6,C[C@@H](OC(=O)CCCNC1=NS(=O)(=O)c2ccccc21)C(=O)c1c[nH]c2ccccc12,2.1
7,CC(=O)C1=C(O)[C@@H]2[C@H]3c4c[nH]c5cccc(c45)C[C@H]3C(C)(C)N2C1=O [CYCLOPIAZONIC ACID],6.6

# Target: not listed separately
# Test: (§1) Inhibition of calcium stimulated Mycobacterium tuberculosis H37Ra CtpF ATPase activity using Na2ATP as substrate preincubated for 30 mins followed by substrate addition and measured after 30 mins by colorimetric analysis
# Conditions: not given
row,Compound,IC50 [µM]
1,CCC[C@H](C)NC(=O)CSc1nc2cc(S(=O)(=O)Nc3ccccc3OC)ccc2o1,35.9
2,COCC(=O)Nc1c(C(=O)OC)n(CCC(C)C)c2ncc(N[C@@H](C)C(C)(C)O)cc12,8
3,O=C(CCCC[C@@H]1SC[C@@H]2NC(=O)N[C@@H]21)NCc1cn(-c2ccccc2)nc1-c1ccccc1,4.1
4,NS(=O)(=O)[C@H]1CC=C(CNC(=O)CCCc2c[nH]c3ccccc23)S1,4.4
5,CCCCC(=O)Nc1cccc(C(=O)NCCCNc2cccnc2)c1,4.2
6,C[C@@H](OC(=O)CCCNC1=NS(=O)(=O)c2ccccc21)C(=O)c1c[nH]c2ccccc12,11.8
7,CC(=O)C1=C(O)[C@@H]2[C@H]3c4c[nH]c5cccc(c45)C[C@H]3C(C)(C)N2C1=O [CYCLOPIAZONIC ACID],7.2

# System: Mycobacterium tuberculosis H37Ra
# Test: as §1
# Conditions: not given
row,Compound,inhibition
1,CC(=O)C1=C(O)[C@@H]2[C@H]3c4c[nH]c5cccc(c45)C[C@H]3C(C)(C)N2C1=O [CYCLOPIAZONIC ACID],Dose-dependent effect

# System: Mycobacterium tuberculosis
# Test: Potency index, ratio of CPA MIC to test compound MIC for Mycobacterium tuberculosis H37Rv
# Type: functional
# Conditions: not given
row,Compound,Ratio
1,COCC(=O)Nc1c(C(=O)OC)n(CCC(C)C)c2ncc(N[C@@H](C)C(C)(C)O)cc12,0.5
2,NS(=O)(=O)[C@H]1CC=C(CNC(=O)CCCc2c[nH]c3ccccc23)S1,0.5

# System: Mycobacterium tuberculosis H37Ra
# Test: Inhibition of calcium stimulated Mycobacterium tuberculosis H37Ra CtpF ATPase activity at 100 uM using Na2ATP as substrate preincubated for 30 mins followed by substrate addition and measured after 30 mins by colorimetric analysis relative to control
# Conditions: not given
row,Compound,inhibition [%]
1,O=C(CCCC[C@@H]1SC[C@@H]2NC(=O)N[C@@H]21)NCc1cn(-c2ccccc2)nc1-c1ccccc1,48.2
2,NS(=O)(=O)[C@H]1CC=C(CNC(=O)CCCc2c[nH]c3ccccc23)S1,44.9
3,CCCCC(=O)Nc1cccc(C(=O)NCCCNc2cccnc2)c1,46.9

# System: not listed separately
# Test: Octanol/water partition coefficient, log P of the compound
# Type: physicochemical
# Conditions: not given
row,Compound,logP
1,CCC[C@H](C)NC(=O)CSc1nc2cc(S(=O)(=O)Nc3ccccc3OC)ccc2o1,4.08
2,COCC(=O)Nc1c(C(=O)OC)n(CCC(C)C)c2ncc(N[C@@H](C)C(C)(C)O)cc12,3.32
3,O=C(CCCC[C@@H]1SC[C@@H]2NC(=O)N[C@@H]21)NCc1cn(-c2ccccc2)nc1-c1ccccc1,3.34
4,NS(=O)(=O)[C@H]1CC=C(CNC(=O)CCCc2c[nH]c3ccccc23)S1,1.68
5,CCCCC(=O)Nc1cccc(C(=O)NCCCNc2cccnc2)c1,2.91
6,C[C@@H](OC(=O)CCCNC1=NS(=O)(=O)c2ccccc21)C(=O)c1c[nH]c2ccccc12,1.82
7,CC(=O)C1=C(O)[C@@H]2[C@H]3c4c[nH]c5cccc(c45)C[C@H]3C(C)(C)N2C1=O [CYCLOPIAZONIC ACID],2.21

# System: Listeria monocytogenes
# Test: Inhibition of Listeria monocytogenes Ca2+ ATPase
# Conditions: not given
row,Compound,INH [µM]
1,CC(=O)C1=C(O)[C@@H]2[C@H]3c4c[nH]c5cccc(c45)C[C@H]3C(C)(C)N2C1=O [CYCLOPIAZONIC ACID],918

# Target: not listed separately
# Test: Inhibition of Bacillus cereus Ca2+ ATPase
# Conditions: not given
row,Compound,IC50 [µM]
1,CC(=O)C1=C(O)[C@@H]2[C@H]3c4c[nH]c5cccc(c45)C[C@H]3C(C)(C)N2C1=O [CYCLOPIAZONIC ACID],4
